Columns and labels:
[1] = tested on: neurotensin-deficient mice; settings: cited from earlier work
[2] = biological target: NTR1 (Homo sapiens (Human), UniProt P30989); test: NTR1 dose response, high-content imaging assay in NTR1-U2OS cells (beta-arrestin-GFP); assay type: cell-based
From the text: The cell lines utilized in the high-content imaging assays, which include the NTR1-, NTR2-, and GPR35-U2OS osteosarcomas, were obtained from the laboratory of Dr. Lawrence Barak at the Duke University Medical Center. The media used in the culture of the cell lines, as well as the assays themselves, consisted of Minimum Essential Medium (15-010-CM) and L-glutamine (25-005-CL) from Cellgro/Mediatech (Manassas, Va.), fetal bovine serum (SH30396.03) from Hyclone (Logan, Utah), penicillin-streptomycin solution (PS-20) from Omega Scientific in Tarzana, Calif., G418 (ant-gn-1) from Invivogen (San Diego, Calif.), and zeocin (R250-01) from Invitrogen (Carlsbad, Calif.). Cell lines were cultured in T225 tissue culture flasks (431082) supplied by Corning (Corning, N.Y.). Additional reagents employed include Dulbecco's Phosphate-Buffered Saline (DPBS) (21-031CV) from Cellgro/Mediatech, Trypsin-EDTA 0.05% (25300) from Invitrogen, paraformaldehyde (30528954) from Acros Organics (Geel, Belgium), Hoechst 33342 (H3570) from Invitrogen. The high-content assays were run in 1536-well plates (29326) supplied by Aurora Biotechnology (Poway, Calif.) and utilized aluminum plate seals (T592100) from E&K Scientific (Santa Clara, Calif.). […]

Sequence of NTR1 (P30989 whole entry, species assumed): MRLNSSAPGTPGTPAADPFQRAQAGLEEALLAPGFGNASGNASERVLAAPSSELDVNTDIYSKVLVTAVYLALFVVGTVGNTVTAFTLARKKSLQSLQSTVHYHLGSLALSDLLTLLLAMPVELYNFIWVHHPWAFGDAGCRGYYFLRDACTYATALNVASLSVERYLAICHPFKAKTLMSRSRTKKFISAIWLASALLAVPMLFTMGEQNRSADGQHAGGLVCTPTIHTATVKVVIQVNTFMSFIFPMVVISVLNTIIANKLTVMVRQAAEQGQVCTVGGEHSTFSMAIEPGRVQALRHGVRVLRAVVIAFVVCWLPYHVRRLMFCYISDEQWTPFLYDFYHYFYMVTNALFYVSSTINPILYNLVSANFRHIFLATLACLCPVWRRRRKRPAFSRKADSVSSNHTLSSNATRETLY

Structure (SMILES)	augmentation of PPI [1]	EC50 [2]
CN1CCN(C2=Nc3cc(Cl)ccc3Nc3ccccc32)CC1 [clozapine]	augmented PPI normally	–
OCCOCCN1CCN(C2=Nc3ccccc3Sc3ccccc32)CC1 [quetiapine]	ineffective	–
C#Cc1nc(N2CCC(c3ccccc3OC)CC2)c2cc(N(C)CCO)ccc2n1 [Example 192, 2-({2-Ethynyl-4-[4-(2-methoxy-phenyl)-piperidin-1-yl]-quinazolin-6-yl}-methyl-amino)-ethanol]	–	et
O=C(CCCN1CCC(O)(c2ccc(Cl)cc2)CC1)c1ccc(F)cc1 [haloperidol]	ineffective	–

From US10584103B2 (Sanford Burnham Prebys Medical Discovery Institute, priority 2014, dated 2020)
